Measured values: patent US20250326859A1, “ANTI-CANCER ANTIBODIES, COMBINATION THERAPIES, AND USES THEREOF” (PRECISION BIOLOGICS, INC., priority 2022, published 2025)

B1: NEO-101: Chimeric NPC-1 antibody, engineered in CHO-DG44 production cell clone 4B7; targets a variant of MUC5AC (protein)
light: QVVLTQSPVIMSASPGEKVTMTCSASSSISYMYWYQQKPGTSPKRWIYDTSKLASGVPARFSGSGSGTSYSLTISNMEAGDAATYYCHQRDSYPWTFGGGTNLEIK
heavy: QVQLKESGPDLVAPSQSLSITCTVSGFSLSKFGVNWVRQPPGKGLEWLGVIWGDGSTSYNSGLISRLSISKENSKSQVFLKLNSLQADDTATYYCVKPGGDYWGHGTSVTVSS

Legend:
colon cancer samples [1] = assay: IHC on paraffin tissue sections, colon cancer; format: binding, human; settings: biotinylated antibody
Source text: (§1) FIG. 2. Immunohistochemistry results from cancer tissue arrays. Immunohistochemistry method (IHC) was used for determining the presence of NEO-101/102, NEO-201 and NEO-301 antigens on paraffin microarrays and tissues. These primary antibodies (NEO-101/NEO-102, NEO-201 and NEO-301) were biotinylated prior to use. Paraffin tissue Microarrays and slides of tissues were reacted with the primary Ab after inactivating endogenous peroxidase and blocking the slides. Staining was detected with streptavidin-horseradish peroxidase conjugate and visualized with chromogen. Biotinylated human IgG1 was used as negative control and mouse anti-human cytokeratin monoclonal antibody was used as positive control. Antibody staining is measured as % and intensity of tumor epithelial cells and luminal secretion within the whole tissue section.
(§2) Immunohistochemistry (IHC) was used for determining the presence of NEO-101/102, NEO-201 and NEO-301 antigens on paraffin microarrays and tissues. These primary antibodies (NEO-101/NEO-102, NEO-201 and NEO-301) were biotinylated prior to use. Paraffin tissue microarrays and slides of tissues were reacted with the primary antibody after inactivating endogenous peroxidase and blocking the slides. Staining was detected with streptavidin-horseradish peroxidase conjugate and visualized with chromogen. Biotinylated human IgG1 was used as negative control and mouse anti-human cytokeratin monoclonal antibody was used as positive control. Antibody staining was measured as % and intensity of tumor epithelial cells and luminal secretion within the whole tissue section.
(§3) The cancer cells and normal cells tested were of the following tissue origins: Colon, Pancreas, Lung, Larynx, Prostate, Esophagus, Uterus, Stomach, Skin, Breast, and Ovary.

lung cancer samples [2] = assay: IHC on paraffin tissue sections, lung cancer; format: binding, human; settings: biotinylated antibody, relatively fewer samples tested
Source text: as §1
(§4) Immunohistochemistry (IHC) was used for determining the presence of NEO-101/102, NEO-201 and NEO-301 antigens on paraffin microarrays and tissues. These primary antibodies (NEO-101/NEO-102, NEO-201 and NEO-301) were biotinylated prior to use. […] Staining was detected with streptavidin-horseradish peroxidase conjugate and visualized with chromogen. […] Antibody staining was measured as % and intensity of tumor epithelial cells and luminal secretion within the whole tissue section. […]

lung cancer samples [3] = assay: IHC on cancer tissue microarray, lung cancer; format: binding, human; settings: biotinylated antibody
Source text: as §1, §4

[4] = system: lung squamous carcinoma cells; assay: Flow cytometry antigen expression, lung squamous cell carcinoma cell lines; format: binding, human; settings: primary antibody at 10 ug/mL; multiple lung squamous cell carcinoma cell lines
Protocol: (§5) FIG. 1. NEO-101, NEO-201 and NEO-301 Antigen Expression by Human Normal and Cancer Cell Lines. NEO-101, NEO-201 and NEO-301 specific antigen expression in various cell lines were detected by Flow Cytometry. Viable cell suspensions were incubated with primary antibody NEO-101, NEO-201 and NEO-301 separately at 10 ug/mL. Human IgG (10 ug/mL) was used as negative control. Goat anti-human IgG (Fc)-phycoerythrin conjugate was used for primary antibody detection; 7-ADD was used for excluding dead cells from analysis. The staining was measured by Flow Cytometry (Guava instrument, Millipore). Median fluorescent intensity (MFI) and % of stained cells was used for determining presence of specific antigen on each cell line.
(§6) Antigen expression in cell lines of various origins were detected by Flow Cytometry. Viable cell suspensions were incubated with primary antibody NEO-101, NEO-201 and NEO-301 separately at 10 ug/mL. Human IgG (10 ug/mL) was used as negative control. Goat anti-human IgG (Fc)-phycoerythrin conjugate was used for primary antibody detection; 7-ADD was used for excluding dead cells from analysis. The staining was measured by Flow Cytometry (Guava instrument, Millipore). Median fluorescent intensity (MFI) and % of stained cells was used for determining presence of specific antigen on each cell line. […]

[5] = system: pancreatic cancer samples; assay: IHC on cancer tissue microarray, pancreatic cancer; format: binding, human; settings: biotinylated antibody
Source text: as §1, §2, §3

[6] = system: colorectal adenocarcinoma cells; assay: Flow cytometry antigen expression, colorectal adenocarcinoma cell lines; format: binding, human; settings: primary antibody at 10 ug/mL; multiple colorectal adenocarcinoma cell lines
Protocol: as §5
(§7) Antigen expression in cell lines of various origins were detected by Flow Cytometry. Viable cell suspensions were incubated with primary antibody NEO-101, NEO-201 and NEO-301 separately at 10 ug/mL. Human IgG (10 ug/mL) was used as negative control. Goat anti-human IgG (Fc)-phycoerythrin conjugate was used for primary antibody detection; 7-ADD was used for excluding dead cells from analysis. The staining was measured by Flow Cytometry (Guava instrument, Millipore). Median fluorescent intensity (MFI) and % of stained cells was used for determining presence of specific antigen on each cell line.
(§8) The cell lines tested included breast cancer cells, cervical squamous carcinoma cells, colorectal adenocarcinoma cells, lung adenocarcinoma cells, lung carcinoma cells, lung squamous carcinoma cells, myelogenous leukemia cells, ovarian cancer cells, pancreatic adenocarcinoma cells, pancreatic carcinoma cells, prostate adenocarcinoma cells, and prostate cancer cells. Additionally, normal lung cells were tested.

colon cancer samples [7] = assay: IHC on cancer tissue microarray, colon cancer; format: binding, human; settings: biotinylated antibody
Source text: as §1, §2, §3

[8] = system: pancreatic cancer samples; assay: IHC on paraffin tissue sections, pancreatic cancer; format: binding, human; settings: biotinylated antibody
Source text: as §1, §2, §3

skin cancer samples = assay: IHC on cancer tissue microarray, skin cancer; format: binding, human; settings: biotinylated antibody
Source text: as §1, §4

[9] = system: lung adenocarcinoma cells; assay: Flow cytometry antigen expression, lung adenocarcinoma cell lines; format: binding, human; settings: primary antibody at 10 ug/mL; multiple lung adenocarcinoma cell lines
Protocol: as §5, §6

Human tumor xenografts = assay: In vivo localization of radiolabeled antibodies in tumor-bearing mice; design: species or system SCID or nude mice; settings: 111In or 86Y label, intravenous, paper example in present tense
Source text: Antibodies NEO-101, NEO-201, and NEO-301 are radiolabeled by conjugation to either ^111In or ^86Y using the acyclic chelate CHX-A″-DTPA. The conjugation molar ratios are empirically determined. Human tumor xenografts are introduced into SCID or nude mice, including the cell lines identified in FIG. 1 as being reactive with NEO-101, NEO-201, or NEO-301 in cell culture and optionally further cancer cell lines detected to bind those antibodies. Control xenografts non-reactive with these antibodies are also utilized. Following intravenous administration of radiolabeled antibodies in tumor-bearing mice, cell samples are harvested and analyzed. Labeled antibody biodistribution is determined with respect to the tumor and other tissues including liver and kidneys.
Additionally, xenograft bearing mice are subjected to imaging studies including planar gamma-imaging performed at multiple time points to assess the stability of labeled antibody binding to the tumor cells and measure the level of accumulation of radiolabeled antibody in other tissues.

[10] = system: pancreatic adenocarcinoma cells; assay: Flow cytometry antigen expression, pancreatic adenocarcinoma cell lines; format: binding, human; settings: primary antibody at 10 ug/mL
Protocol: as §5, §7, §8

uterus cancer samples = assay: IHC on cancer tissue microarray, uterus cancer; format: binding, human; settings: biotinylated antibody
Source text: as §1, §4

breast cancer samples = assay: IHC on cancer tissue microarray, breast cancer; format: binding, human; settings: biotinylated antibody
Source text: as §1, §4

esophagus cancer samples = assay: IHC on cancer tissue microarray, esophagus cancer; format: binding, human; settings: biotinylated antibody
Source text: as §1, §4

stomach cancer samples = assay: IHC on cancer tissue microarray, stomach cancer; format: binding, human; settings: biotinylated antibody
Source text: as §1, §4

| Molecule | cancer samples positive for the antigen (colon cancer samples [1]) [%] | cancer samples positive for the antigen (lung cancer samples [2]) [%] | cancer samples positive for the antigen (lung cancer samples [3]) [%] | antigen expression detected by flow cytometry [4] | cancer samples positive for the antigen [5] [%] | antigen expression detected by flow cytometry [6] | cancer samples positive for the antigen (colon cancer samples [7]) [%] | cancer samples positive for the antigen [8] [%] | cancer samples positive for the antigen (skin cancer samples) [%] | antigen expression detected by flow cytometry [9] | binding of radiolabeled antibody to its antigen in vivo (Human tumor xenografts) | antigen expression detected by flow cytometry [10] | cancer samples positive for the antigen (uterus cancer samples) [%] | cancer samples positive for the antigen (breast cancer samples) [%] | cancer samples positive for the antigen (esophagus cancer samples) [%] | cancer samples positive for the antigen (stomach cancer samples) [%] |
| --- | --- | --- | --- | --- | --- | --- | --- | --- | --- | --- | --- | --- | --- | --- | --- | --- |
| NEO-201: Humanized 16C3 antibody; binds epitopes in CEACAM5 and CEACAM6 | 94 | 90 | 61 | detected | 86 | detected | 85 | 83 | 16 | detected | able to bind their respective antigens | detected | 51 | – | – | – |
| NEO-301: Chimeric 31.1 antibody, 2 amino acid changes in HC constant domain, produced in high titer CHO-S cells; binds A33 antigen | 52 | – | 56 | – | 57 | detected | 87 | 47 | – | – | able to bind their respective antigens | detected | – | 78 | 43 | – |
| B1 | 87 | 67 | – | – | 31 | detected | 61 | 82 | – | – | able to bind their respective antigens | detected | 41 | – | – | 30 |
